The record followed here is patent EP4707279A1, “SUBSTITUTED TRICYCLIC HETEROCYCLIC COMPOUND AS PHARMACEUTICAL FOR TREATMENT OR PREVENTION OF COVID-19” (priority 2023, dated 2024).

A value given as a limit tells only on which side of the number the result lay.

One test deals with SARS-CoV-2. The experiment in a line: CPE inhibition assay, anti-SARS-CoV-2 virus activity in vitro (Test Example 4). It counts as cell-based. The settings on record: CPE inhibition at 10 µM; VeroE6-TMPRSS2 cells; MOI 0.01; third day post infection; average of three tests.
On to “Ethyl (6R,9S,11aR,11bR)-1.3 dibenzyl 11b-hydroxy 6 isobutyl-2.4.7 trioxodecahydro-2H pyrrolo[2',1':3,4] pyrazino[1.2 a][1.3.5] triazine 9 carboxylate [Compound 30A]”, for which the “Anti SARS-CoV-2 activity” value is recorded as “A (a CPE inhibition effect of 5% or more)”.
Same read-out and setting: the entry for “Ethyl (6R,9S,11aR)-11b-hydroxy-6-isopropyl-2.4,7-trioxo-1,3-bis(thiophen-2-ylmethyl)decahydro-2H-pyrrolo[2',1':3,4] pyrazino[1,2-a][1,3,5] triazine-9-carboxylate [Compound 27A]” is “A (a CPE inhibition effect of 5% or more)”.
On the same count and under the same terms, the value for “(6S,11a8)-1,3,6-tribenzyl-11b-hydroxy-11a-methylhexahydro-2H-pyrrolo[2',1':3,4]pyrazino [1,2-a][1,3,5]triazine-2,4,7(3H,6 H)-trione [Compound 12A]” was “B (a CPE inhibition effect of less than 5% but 1% or more)”; that for “(6R.9S)-1.3-benzyl-6-(4-fluorobenzyl)-N-(naphthalen-2-ylmethyl)-2, 4,7-trioxo-1,3,4,6,7,9,10,11-octahydro-2H-pyrrolo [2',1':3,4]pyridazine [1,2-a][1,3,5]triazine-9-carboxamide [Compound 5E]” was “C (less than 1%)”; that for “(6R,10R,11aR)-1.3,6-tribenzyl-10-(benzyl oxy)-11b-hydroxyhexahydro-2H-pyrrolo [2',1':3,4]pyrazino[1,2-a][1.3,5] triazine-2,4,7(3H.6H)-trione [Compound 15A]” was “C (less than 1%)”.
For “(6R,9S,11aR,11bR)-1,3-Dibenzyl-11b-hydroxy-N,6-bis(naphthalen-2-ylmethyl)-2.4.7-trioxodecahydro-2H-pyrrolo[2'.1':3,4] pyrazino[1,2-a][1,3,5] triazine-9-carboxamide [Compound 7D]”, the “Anti SARS-CoV-2 activity” value was “B (a CPE inhibition effect of less than 5% but 1% or more)”.
Same read-out and setting: the value for `O=C(O)[C@@H]1CC[C@H]2N1C(=O)[C@@H](Cc1ccccc1)N1C(=O)N(Cc3ccccc3)C(=O)N(Cc3ccccc3)[C@]21O` [Compound 1C, (6R,9S,11aR,11bR)-1,3,6-Tribenzyl-11b-hydroxy-2,4,7-trioxo-2H-pyrrolo[2',1':3,4]pyridazino[1,2-a][1,3,5] triazine-9-carboxylic acid] was “C (less than 1%)”.
Still for that read-out and setting: the entry for “(6R.9S.11aR.11bR)-1,3-Dibenzyl-6-(4-fluorobenzyl)-11b-hydroxy-N-(naphthalen-2-yl methyl)-2,4,7-trioxodecahydro-2H-pyrrolo[2',1':3,4]pyridazine [1,2-a][1,3,5]triazine-9-carboxamide [Compound 5D]” is “A (a CPE inhibition effect of 5% or more)”.
Same read-out and setting: the value for “Ethyl (6R,9S,11aR,11bR)-1,3-dibenzyl-11b-hydroxy-6-(4-methoxybenzyl)-2,4.7-trioxodecahydro-2H-pyrrolo [2',1':3,4]pyrazino[1,2-a][1,3,5] triazine-9-carboxylate [Compound 6A]” was “C (less than 1%)”; that for “Ethyl (6S,9R,11aS,11bS)-1,3,6-tribenzyl-11b-hydroxy-2,4.7-trioxodecahydro-2H-pyrrolo [2',1':3,4]pyrazino[1,2-a][1,3,5] triazine-9-carboxylate [Compound 4A]” was “C (less than 1%)”; that for “(6S,9R,11aS,11bS)-1,3,6-Tri benzyl-11b-hydroxy-2,4,7-tri oxodecahydro-2H-pyrrolo [2',1':3,4]pyridazine[1,2-a] [1,3,5]triazine-9-carboxylic acid [Compound 4C]” was “C (less than 1%)”.
As for “(6R,10R.11aS)-1,3.6-tribenzyl-10-(benzyl oxy)-11b-hydroxyhexahydro-2H-pyrrolo [2',1':3,4]pyridazino[1,2-a][1,3,5 triazine-2,4,7(3H.6H)-trione [Compound 14A]”, the “Anti SARS-CoV-2 activity” value is given as “B (a CPE inhibition effect of less than 5% but 1% or more)”.
For “(6R,9S,11aR,11bR)-6-benzyl-11b-hydroxy-N-(naphthalen-2-ylmethyl)-2 ,4,7-trioxo-1,3-bis (thien-2-ylmethyl) decahydro-2H-pyrrolo [2',1':3,4]pyridazino[1,2-a] [1.3,5]triazine-9-carboxamide [Compound 18D]”, the “Anti SARS-CoV-2 activity” value is on record as “C (less than 1%)”.

Still in this test, the particulars now being: Severe acute respiratory syndrome coronavirus 2, VeroE6/TMPRSS2, 72 h, read-out: Anti SARS-CoV-2 activity.
On to `O=C(NCc1ccc2ccccc2c1)[C@@H]1CC[C@H]2N1C(=O)C1(Cc3ccccc3C1)N1C(=O)N(Cc3ccccc3)C(=O)N(Cc3ccccc3)C21O` (stereo partly drawn) [Compound 21D, (9'S,11a'R)-1',3'-Dibenzyl-11b'-Hydroxy-N-(naphthalen-2-ylmethyl)-2',4',7'-trioxo-1,1',3,3',4',9',10',11',11a',1 1b'-decahydro-2'H,7'H-spiro[indene-2,6'-pyrrolo[2',1':3,4]pyrazino[1,2-a][1,3,5]triazine]-9'-carboxamide], for which the inhibition at 10 µM fell in the range of 1 to 5%.
Still for that read-out and setting: the figure for `COC(=O)[C@@H]1CCC[C@H]2N1C(=O)[C@@H](Cc1ccccc1)N1C(=O)N(Cc3ccccc3)C(=O)N(Cc3ccccc3)C21O` (stereo partly drawn) [Compound 25A, Methyl (6R,9S,12aR)-1,3,6-tribenzyl-12b-hydroxy-2,4,7-trioxododecahydropyri do[2',1':3,4]pyrazino[1,2-a][1,3,5]triazine-9-carboxylate] is over 5%; for `O=C(NCc1ccc2ccccc2c1)[C@@H]1CCC2=C3N(Cc4ccccc4)C(=O)N(Cc4ccccc4)C(=O)N3[C@H](Cc3ccc4ccccc4c3)C(=O)N21` [Compound 7E, (6R,9S)-1,3-Dibenzyl-N,6-Bis(naphthalen-2-ylmethyl) -2,4,7-trioxo-1,3,4,6,7,9,10, 11-octahydro-2H-pyrrolo [2',1':3,4]pyrazino[1,2-a] [1,3,5]triazine-9-carboxamide] it is 1 to 5%.
Still for that read-out and setting: the figure for `O=C1[C@H](Cc2ccccc2)N2C(=O)N(Cc3ccccc3)C(=O)N(Cc3ccccc3)C2=C2C[C@@H](OCc3ccccc3)CN12` [Compound 11B, (6S,10R)-1,3,6-Tribenzyl-10-(benzoxy)-1,9,10,11-tetrahydro-2 H-pyrrolo[2',1':3,4]pyridazino [1,2-a][1,3,5]triazine-2,4,7 (3H,6H)-trione] is over 5%; for `CCOC(=O)[C@@H]1CC[C@H]2N1C(=O)[C@@H](CC)N1C(=O)N(Cc3ccccc3)C(=O)N(Cc3ccccc3)[C@]21O` [Compound 29A, Ethyl (6R,9S,11aR,11bR)-1,3-dibenzyl-6-ethyl-11b-hydroxy-2,4,7-trioxodecahydro-2H-pyrrolo[2',1':3,4]pyrazi no[1,2-a][1,3,5] triazine-9-carboxylate] it is over 5%; for `CCOC(=O)[C@@H]1CC[C@H]2N1C(=O)[C@@H](Cc1ccc3ccccc3c1)N1C(=O)N(Cc3ccccc3)C(=O)N(Cc3ccccc3)[C@]21O` [Compound 7A, Ethyl (6R,9S,11aR,11bR)-1,3-dibenzyl-11b-hydroxy-6-(naphthalen-2-ylmethyl)-2,4,7-trioxodecahydro-2H-pyrrolo[2',1' :3,4]pyrazino[1,2-a][1,3,5]triazine-9-carboxylate] it is under 1%.
Turning to `CCOC(=O)[C@@H]1CC[C@H]2N1C(=O)[C@@H](Cc1ccccc1)N1C(=O)N(Cc3ccccc3)C(=O)N(Cc3ccccc3)[C@]21O` [Compound 1A, Ethyl (6R,9S,11aR,11bR)-1,3,6-tribenzyl-11b-hydroxy-2,4,7-trioxodecahydro-2H-pyrrolo[2',1':3,4]pyrazino[1,2-a][1,3,5]triazine-9-carboxylate], the inhibition at 10 µM was under 1%.
Turning to `O=C1[C@@H](Cc2ccccc2)N2C(=O)N(Cc3ccccc3)C(=O)N(Cc3ccccc3)C2=C2CCCCN12` [Compound 13B, (R) 1,3,6-Tribenzyl-9,10,11,12-tetrahydropyrido[2',1':3,4] pyrazino[1,2-a][1,3,5]triazine-2,4,7(1H,3H,6H)-trione], the inhibition at 10 µM was 1 to 5%.
With `O=C(NCc1ccc2ccccc2c1)[C@H]1CCCC2=C3N(Cc4ccccc4)C(=O)N(Cc4ccccc4)C(=O)N3[C@H](Cc3ccccc3)C(=O)N21` [Compound 25E, (6R,9R)-1,3,6-Tribenzyl-N-(naphthalen-2-ylmethyl)-2,4,7-trioxo-1,2,3,4,6,7,9,10,11,12-decahydropyrido[2',1':3,4] pyrazino[1,2-a][1,3,5]triazine-9-carboxamide], the inhibition at 10 µM is 1 to 5%.
For the molecule `O=C(NCc1ccc2ccccc2c1)[C@H]1CCC2=C3N(Cc4ccccc4)C(=O)N(Cc4ccccc4)C(=O)N3[C@@H](Cc3ccccc3)C(=O)N21` [Compound 4E, (6S,9R)-1,3,6-Tribenzyl-N-(naphthalen-2-ylmethyl)-2,4,7-trioxo-1,3,4,6,7,9,10,1 1-octahydro-2H-pyrrolo [2',1':3,4]pyrazino[1,2-a] [1,3,5]triazine-9-carboxamide], the inhibition at 10 µM is 1 to 5%.
The same measure, in the same setting: the figure for `O=C(NCc1ccc2ccccc2c1)[C@@H]1CCC2=C3N(Cc4ccccc4)C(=O)N(Cc4ccccc4)C(=O)N3[C@H](Cc3ccccc3)C(=O)N21` [Compound 1E, (6R,9S)-1,3,6-Tribenzyl-N-(naphthalen-2-ylmethyl)-2,4,7-trioxo-1,3,4,6,7,9,10,11-octahydro-2H-pyrrolo[2',1':3,4] pyrazino[1,2-a][1,3,5]triazine-9-carboxamide] is under 1%.
On to `CCOC(=O)[C@@H]1CCC2=C3N(Cc4ccccc4)C(=O)N(Cc4ccccc4)C(=O)N3[C@H](Cc3ccccc3)C(=O)N21` (stereo in doubt) [Compound 4B, Ethyl (6R,9S)-1,3,6-tribenzyl-2,4,7-trioxo-1,3,4,6,7,9,10,11-octahydro-2H-pyrrolo[2',1':3,4] pyrazino[1,2-a][1,3,5]triazine-9-carboxylate], for which the inhibition at 10 µM is over 5%.
Same read-out and setting: the value for `CCOC(=O)[C@@H]1CC[C@H]2N1C(=O)[C@@H](C(C)C)N1C(=O)N(Cc3ccco3)C(=O)N(Cc3ccco3)[C@]21O` [Compound 28A, Ethyl (6R,9S,11aR,11bR)-1,3-bis(furan-2-ylmethyl)-11b-hydroxy-6-isopropyl-2,4,7-trioxodecahydro-2H-pyrrolo[2',1':3,4] pyrazino[1,2-a][1,3,5] triazine-9-carboxylate] was over 5%.
